Measurements: the NIST ThermoML archive (doi:10.1021/je300045c)
Values joined by “and” are separate entries in the source; they are usually repeats but may differ in a detail not shown here. Identical values can stand only once.

Tests used:
[1] = 358.15 K, 101 kPa, Liquid
[2] = xn = mol fraction of the nth substance listed; conditions: 358.15 K, 101 kPa, Liquid; for electrical conductivity: Alternating current cell with electrodes; for viscosity: Falling or rolling sphere viscometry; for mass density: Vibrating tube method
[3] = molar heat capacity at constant pressure; wn = mass fraction of the nth substance listed; conditions: 358.15 K, 101 kPa, Liquid, Small sample (50 mg) DSC

CCCCn1cc[n+](C)c1.CS(=O)(=O)[O-] [1-butyl-3-methylimidazolium methanesulfonate]
[1]
Conditions	electrical conductivity [S/m]	mass density [kg/m3]
Alternating current cell with electrodes	0.805	–
Vibrating tube method	–	1134

CCCCn1cc[n+](C)c1.CS(=O)(=O)[O-] [1-butyl-3-methylimidazolium methanesulfonate] + O
Conditions	electrical conductivity [S/m]	mass density [kg/m3]	molar heat capacity at constant pressure	viscosity [mPa·s]
[2], x2 = 0	0.805	1134	–	–
[2], x2 = 0.012	0.821	1134	–	–
[2], x2 = 0.028	0.84	1134	–	–
[2], x2 = 0.049	0.871	1134	–	–
[2], x2 = 0.074	0.907	1133	–	–
[2], x2 = 0.106	0.955	1133	–	–
[2], x2 = 0.131	1	1132	–	–
[2], x2 = 0.14	–	1132	–	–
[2], x2 = 0.147	1.03	1132	–	–
[2], x2 = 0.156	1.06	–	–	–
[2], x2 = 0.159	–	1131	–	–
[2], x2 = 0.185	1.12	–	–	–
[2], x2 = 0.187	–	1130	–	–
[2], x2 = 0.203	1.14	1130	–	–
[2], x2 = 0.217	1.2	–	–	–
[2], x2 = 0.224	–	1129	–	–
[2], x2 = 0.252	1.29	–	–	–
[2], x2 = 0.27	1.3	1129	–	–
[2], x2 = 0.271	–	1128	–	–
[2], x2 = 0.306	1.44	–	–	–
[2], x2 = 0.329	–	1126	–	–
[2], x2 = 0.358	1.61	–	–	–
[2], x2 = 0.363	1.59	1126	–	–
[2], x2 = 0.4	–	1125	–	–
[2], x2 = 0.423	1.87	–	–	–
[2], x2 = 0.457	2	1124	–	–
[2], x2 = 0.478	–	1122	–	–
[2], x2 = 0.495	2.22	–	–	–
[2], x2 = 0.535	2.46	–	–	–
[2], x2 = 0.555	–	1121	–	–
[2], x2 = 0.556	2.58	1120	–	–
[2], x2 = 0.559	–	1120.7	–	7.514
[2], x2 = 0.61	3.02	–	–	–
[2], x2 = 0.628	–	1118	–	–
[2], x2 = 0.643	3.14	1116	–	–
[2], x2 = 0.654	–	1114.4	–	5.344
[2], x2 = 0.677	3.71	–	–	–
[2], x2 = 0.692	–	1113	–	–
[2], x2 = 0.702	–	1110.3	–	4.549
[2], x2 = 0.744	4.6	1106	–	–
[2], x2 = 0.749	–	1104.1	–	3.616
[2], x2 = 0.75	4.81	–	–	–
[2], x2 = 0.771	–	1105	–	–
[2], x2 = 0.801	–	1094.9	–	2.795
[2], x2 = 0.836	6.82	1087	–	–
[2], x2 = 0.842	7.27	–	–	–
[2], x2 = 0.848	–	1085	–	–
[2], x2 = 0.852	–	1081.2	–	2.048
[2], x2 = 0.878	9	–	–	–
[2], x2 = 0.886	–	1072	–	–
[2], x2 = 0.9	–	1062.3	–	1.486
[2], x2 = 0.925	–	1048.2	–	1.149
[2], x2 = 0.95	–	1029.7	–	0.834
[2], x2 = 0.975	–	1003.9	–	0.547
[3], w2 = 0.002	–	–	1.768 J/K/mol	–
[3], w2 = 0.014	–	–	1.793 J/K/mol	–
[3], w2 = 0.032	–	–	1.996 J/K/mol and 2.027 J/K/mol	–
[3], w2 = 0.087	–	–	2.267 J/K/mol	–
[3], w2 = 0.097	–	–	2.252 J/K/mol	–
[3], w2 = 0.15	–	–	2.244 J/K/mol	–
[3], w2 = 0.233	–	–	2.448 J/K/mol	–
[3], w2 = 0.429	–	–	2.926 J/K/mol	–

O [water] + CCCCn1cc[n+](C)c1.CS(=O)(=O)[O-]
Conditions	molar heat capacity at constant pressure [J/K/mol]	viscosity [mPa·s]
[2], x1 = 1	–	0.334
[3], w1 = 1	4.12	–
